The record followed here is article PMC11995866, “Roles of basic amino acid residues in substrate binding and transport of the light-driven anion pump Synechocystis halorhodopsin (SyHR)” (The Journal of Biological Chemistry, 2025).

In general, pKd refers to the negative decadic logarithm of the Kd, by convention in mol/L.

In test [1] the target is T1, Synechocystis halorhodopsin (SyHR) (Synechocystis sp. PCC 7509, UniProt A0A9X9ZA75, R71A).
T1 sequence (A0A9X9ZA75 1-234 R71A): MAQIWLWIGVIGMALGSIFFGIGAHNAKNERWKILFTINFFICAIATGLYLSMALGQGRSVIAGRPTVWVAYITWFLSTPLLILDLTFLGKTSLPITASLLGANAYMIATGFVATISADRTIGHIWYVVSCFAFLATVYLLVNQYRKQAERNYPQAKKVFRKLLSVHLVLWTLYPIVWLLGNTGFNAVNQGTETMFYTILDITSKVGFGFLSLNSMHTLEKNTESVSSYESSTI
Put plainly: biochemical.

The target of test [2] is T2, Synechocystis halorhodopsin (SyHR) (Synechocystis sp. PCC 7509, UniProt A0A9X9ZA75, R71Y).
T2 sequence (A0A9X9ZA75 1-234 R71Y): T1 sequence (A0A9X9ZA75 1-234 R71A) with A71Y
The test is described as follows: biochemical.

In test [3] the target is T3, Synechocystis halorhodopsin (SyHR) (Synechocystis sp. PCC 7509, UniProt A0A9X9ZA75, H167A).
T3 construct: codon-optimised, C-terminal His6 tag, pET21a, E. coli BL21(DE3) with all-trans retinal; HisTrap-purified in DDM
T3 sequence (A0A9X9ZA75 1-234 H167A): T1 sequence (A0A9X9ZA75 1-234 R71A) with A71R, H167A
The test is described as follows: absorption spectral shift titration (UV-visible), single-site Hill fit. In kind it is binding.

Test [4] has as its target T4, Synechocystis halorhodopsin (SyHR) (Synechocystis sp. PCC 7509, UniProt A0A9X9ZA75, R71K).
T4 construct: codon-optimised, C-terminal His6 tag, pET21a, E. coli BL21(DE3) with all-trans retinal; HisTrap-purified in DDM
T4 sequence (A0A9X9ZA75 1-234 R71K): T1 sequence (A0A9X9ZA75 1-234 R71A) with A71K
The test is described as above. In kind it is binding.

The target of test [5] is T5, Synechocystis halorhodopsin (SyHR) (Synechocystis sp. PCC 7509, UniProt A0A9X9ZA75).
T5 construct: codon-optimised, C-terminal His6 tag, pET21a, E. coli BL21(DE3) with all-trans retinal; HisTrap-purified in DDM
T5 sequence (A0A9X9ZA75 1-234): T1 sequence (A0A9X9ZA75 1-234 R71A) with A71R
The description is as above. In kind it is binding.

Numbering of substitutions follows the chain as printed. pKd: −log10 of the molar value.

As to `Cl` [Cl^−], the pKd in test [1] was 2.35; in test [2], 2.85; in test [3], 3.44; in test [4], 3.26; in test [5] it was 3.23.
Consider `O=S(=O)(O)O` [SO4^2−], for which the pKd in test [3] is 2.19; in test [4], 2.42; in test [5], 2.44.
